Experimental data: ChEMBL document CHEMBL4033680, “Derivatives of caffeic acid, a natural antioxidant, as the basis for the discovery of novel nonpeptidic neurotrophic agents” (2017)
The source made the active and inactive calls. No cut-off for these calls is given here.

Legend:
[1] = system: PC-12; test: Neuroprotective activity against serum deprivation-induced cell death in rat PC12 cells assessed as cell survival at 25 uM after 48 hrs by MTT assay relative to control; type: functional; conditions: PC-12, 48 h, read-out: Survival
[2] = system: PC-12; test: Potentiation of NGF-induced neuronal differentiation in rat PC12 cells assessed as increase in number of neurites at 25 uM after 8 days by phase contrast micoscopy; type: functional, cell-based
[3] = system: PC-12; test: Potentiation of NGF-induced neuronal differentiation in rat PC12 cells assessed as increase in number of neurites longer than 100 umeter at 25 uM after 8 days by phase contrast micoscopy; type: functional, cell-based
[4] = system: PC-12; test: Potentiation of NGF-induced neuronal differentiation in rat PC12 cells assessed as increase in number of neurites at 1 uM after 8 days by phase contrast micoscopy; type: functional, cell-based
[5] = system: PC-12; test: Neuroprotective activity against serum deprivation-induced cell death in rat PC12 cells assessed as increase in cell survival at 25 uM after 48 hrs in presence of TrkA inhibitor K252a by MTT assay; type: functional, cell-based
[6] = system: PC-12; test: Induction of neurite outgrowth in rat PC12 cells assessed as increase in total number of neurites at 5 to 25 uM after 8 days by phase contrast micoscopy; type: functional, cell-based
[7] = system: PC-12; test: Potentiation of NGF-induced neuronal differentiation in rat PC12 cells assessed as increase in number of neurites at 5 uM after 8 days by phase contrast micoscopy; type: functional, cell-based
[8] = system: PC-12; test: Potentiation of NGF-induced neuronal differentiation in rat PC12 cells assessed as increase in number of neurites longer than 100 umeter at 5 uM after 8 days by phase contrast micoscopy; type: functional, cell-based
[9] = system: PC-12; test: Potentiation of NGF-induced neuronal differentiation in rat PC12 cells assessed as increase in number of neurites after 8 days by phase contrast micoscopy; type: functional, cell-based
[10] = target: High affinity nerve growth factor receptor (Rattus norvegicus) (UniProt P35739); test: Activation of TrkA in rat PC12 cells assessed as increase in phospho-TrkA levels at 5 to 25 uM after 60 mins by Western blot method; type: cell-based
[11] = target: High affinity nerve growth factor receptor (Rattus norvegicus) (UniProt P35739); test: Potentiation of NGF-induced TrkA phosphorylation in rat PC12 cells at 5 to 25 uM after 60 mins by Western blot method; type: cell-based
[12] = target: T1, Mitogen-activated protein kinase 1 and 3 (ERK2 and ERK1) (Rattus norvegicus) (UniProt P63086+P21708); test: Increase in ERK1/2 phosphorylation in rat PC12 cells after 2 hrs by immunoblotting method; type: cell-based
[13] = target: RAC-alpha serine/threonine-protein kinase (Rattus norvegicus) (UniProt P47196); test: Increase in AKT phosphorylation in rat PC12 cells at 5 to 25 uM after 2 hrs by immunoblotting method; type: cell-based
[14] = target: RAC-alpha serine/threonine-protein kinase (Rattus norvegicus) (UniProt P47196); test: Increase in NGF-induced AKT phosphorylation in rat PC12 cells at 5 to 25 uM after 2 hrs by immunoblotting method; type: cell-based
[15] = target: T1, Mitogen-activated protein kinase 1 and 3 (ERK2 and ERK1) (Rattus norvegicus); test: Increase in NGF-induced ERK1/2 phosphorylation in rat PC12 cells at 5 to 25 uM after 2 hrs by immunoblotting method; type: cell-based

Chain of High affinity nerve growth factor receptor (Rattus norvegicus) (P35739 whole entry): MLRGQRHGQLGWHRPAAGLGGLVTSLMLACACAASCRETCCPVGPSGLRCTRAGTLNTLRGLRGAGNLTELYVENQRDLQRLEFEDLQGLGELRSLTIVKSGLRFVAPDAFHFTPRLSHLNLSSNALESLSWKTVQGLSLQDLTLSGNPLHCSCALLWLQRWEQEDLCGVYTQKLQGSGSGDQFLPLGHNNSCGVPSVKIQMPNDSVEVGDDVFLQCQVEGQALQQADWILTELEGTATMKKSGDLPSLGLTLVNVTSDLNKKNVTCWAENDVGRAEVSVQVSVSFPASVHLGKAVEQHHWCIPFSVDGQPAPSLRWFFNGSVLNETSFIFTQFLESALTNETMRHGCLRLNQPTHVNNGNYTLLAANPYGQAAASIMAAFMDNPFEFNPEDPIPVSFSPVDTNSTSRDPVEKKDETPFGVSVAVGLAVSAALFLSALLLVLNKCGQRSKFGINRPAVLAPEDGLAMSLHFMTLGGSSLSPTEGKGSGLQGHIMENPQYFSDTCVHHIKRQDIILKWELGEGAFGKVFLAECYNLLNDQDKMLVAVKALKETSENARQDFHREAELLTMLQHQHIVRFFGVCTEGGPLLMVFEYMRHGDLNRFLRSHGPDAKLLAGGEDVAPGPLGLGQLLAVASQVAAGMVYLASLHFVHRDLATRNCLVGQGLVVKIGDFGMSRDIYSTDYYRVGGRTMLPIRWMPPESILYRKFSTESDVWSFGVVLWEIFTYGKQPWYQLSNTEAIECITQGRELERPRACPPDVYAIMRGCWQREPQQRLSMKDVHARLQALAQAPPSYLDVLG
T1 sequence (P21708 whole entry, looked up): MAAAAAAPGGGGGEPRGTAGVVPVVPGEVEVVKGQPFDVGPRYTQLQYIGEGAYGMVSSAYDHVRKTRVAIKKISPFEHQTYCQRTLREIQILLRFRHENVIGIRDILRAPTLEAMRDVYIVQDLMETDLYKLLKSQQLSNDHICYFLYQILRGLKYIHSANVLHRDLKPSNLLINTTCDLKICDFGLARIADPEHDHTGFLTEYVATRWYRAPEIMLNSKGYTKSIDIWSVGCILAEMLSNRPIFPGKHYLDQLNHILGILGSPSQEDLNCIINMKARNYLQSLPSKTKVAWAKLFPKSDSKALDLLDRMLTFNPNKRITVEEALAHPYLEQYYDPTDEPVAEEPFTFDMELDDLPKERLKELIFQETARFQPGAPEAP
T1 sequence (P63086 whole entry, looked up): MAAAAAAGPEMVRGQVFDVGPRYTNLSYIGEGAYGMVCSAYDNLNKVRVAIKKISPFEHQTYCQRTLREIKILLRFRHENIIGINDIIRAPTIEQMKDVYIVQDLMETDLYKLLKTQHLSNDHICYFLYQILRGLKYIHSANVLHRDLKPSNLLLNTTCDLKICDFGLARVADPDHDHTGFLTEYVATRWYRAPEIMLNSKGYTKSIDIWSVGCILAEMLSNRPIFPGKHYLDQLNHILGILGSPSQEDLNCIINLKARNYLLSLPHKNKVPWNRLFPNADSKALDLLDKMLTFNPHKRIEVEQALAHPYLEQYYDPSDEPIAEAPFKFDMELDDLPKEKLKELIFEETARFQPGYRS
Chain of RAC-alpha serine/threonine-protein kinase (Rattus norvegicus) (P47196 whole entry): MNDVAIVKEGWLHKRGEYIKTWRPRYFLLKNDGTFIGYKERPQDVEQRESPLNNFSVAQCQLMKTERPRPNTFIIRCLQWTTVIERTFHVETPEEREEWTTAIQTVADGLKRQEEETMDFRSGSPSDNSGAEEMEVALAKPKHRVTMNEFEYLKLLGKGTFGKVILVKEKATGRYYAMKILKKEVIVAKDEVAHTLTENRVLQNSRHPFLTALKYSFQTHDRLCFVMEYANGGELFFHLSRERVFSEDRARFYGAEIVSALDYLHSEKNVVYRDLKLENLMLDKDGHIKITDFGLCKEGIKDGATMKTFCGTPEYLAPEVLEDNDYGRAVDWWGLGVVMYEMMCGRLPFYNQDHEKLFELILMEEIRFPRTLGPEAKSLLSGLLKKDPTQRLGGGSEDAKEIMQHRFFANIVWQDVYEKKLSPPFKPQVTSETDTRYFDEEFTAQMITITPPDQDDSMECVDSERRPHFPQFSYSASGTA

Compound: CCCNC(=O)/C=C/c1ccc(O)c(O)c1
- viability at 25 µM [1]: 158%
- Activity [2]: Active
- Activity [3]: Active
- Activity [4]: inactive
- Activity [5]: inactive
- Activity [6]: inactive

Compound: CCCCCCNC(=O)/C=C/c1ccc(O)c(O)c1 [CAFFEOYLHEXYLAMIDE]
- viability at 25 µM [1]: 183%
- Activity [7]: Active
- Activity [2]: Active
- Activity [8]: Active
- Activity [3]: Active
- Activity [4]: inactive
- Activity [5]: inactive
- Activity [6]: inactive

Compound: CCCCCCCCCCNC(=O)/C=C/c1ccc(O)c(O)c1
- viability at 25 µM [1]: 193%
- Activity [9]: inactive
- Activity [5]: inactive

Compound: CCCCNC(=O)/C=C/c1ccc(O)c(O)c1
- viability at 25 µM [1]: 202%
- Activity [7]: Active
- Activity [2]: Active
- Activity [8]: Active
- Activity [3]: Active
- Activity [4]: inactive
- Activity [5]: inactive
- Activity [10]: inactive
- Activity [11]: inactive
- Activity [12]: Dose-dependent effect
- Activity [13]: inactive
- Activity [6]: inactive
- Activity [14]: inactive
- Activity [15]: Active

Compound: CCCCCCCCCCCCNC(=O)/C=C/c1ccc(O)c(O)c1
- viability at 25 µM [1]: 230%
- Activity [9]: inactive
- Activity [5]: inactive
- Activity [10]: inactive
- Activity [11]: inactive
- Activity [12]: Dose-dependent effect
- Activity [13]: Active
- Activity [14]: inactive
- Activity [15]: Active

Compound: CCCCCCCCNC(=O)/C=C/c1ccc(O)c(O)c1
- viability at 25 µM [1]: 158%
- Activity [7]: Active
- Activity [2]: Active
- Activity [8]: Active
- Activity [3]: Active
- Activity [4]: inactive
- Activity [5]: inactive
- Activity [6]: inactive
